Laboratory results published in patent US20080287490A1, “Bis-pyridino containing compounds for the use in the treatment of CNS pathologies” (UNIVERSITY OF KENTUCKY RESEARCH FOUNDATION, priority 2005, published 2008).
Where two headings read alike, the source gives them in different places.

Tests used:
[1] = test system: nAChR subtypes mediating nicotine-evoked [^3H]-dopamine overflow
Method: [^3H]-Dopamine overflow from superfused striatal slices. […] Striatal coronal slices (500 μm, 4-6 mg) were obtained and incubated for 30 minutes in Krebs' buffer (in mM: 118 NaCl, 4.7 KCl, 1.2 MgCl2, 1 NaH2PO4, 1.3 CaCl2, 11.1 glucose, 25 NaHCO3, 0.11 L-ascorbic acid and 0.004 disodium EDTA, pH 7.4, saturated with 95% O2/5% CO2) in a metabolic shaker at 34° C. Slices were incubated with 0.1 μM (final concentration) of [^3H]-dopamine during the latter 30 minutes of the 60-minute incubation period. Each slice was transferred to a glass superfusion chamber maintained at 34° C. and superfused (1 ml/min) with Krebs' buffer containing nomifensine (10 μM) and pargyline (10 μM) to inhibit [^3H]-dopamine reuptake after release into the extracellular space, ensuring that [^3H]-overflow primarily represented [^3H]-dopamine. Sample collection (5-minute; 5 mL) began after 60 minutes of superfusion. […] At the end of the experiment, each slice was solubilized, and the [^3H]-content of the tissue determined. Release during each minute was normalized for total tissue [^3H]-content. Analog-induced intrinsic activity and inhibitory activity were determined using slices from the same rat (repeated-measures design).
The amount of [^3H] in each sample was calculated by dividing the total [^3H] collected in each sample by the total in the tissue at the time of sample collection (defined as fractional release). […] Data were analyzed by weighted, least squares regression analysis of the sigmoidal concentration-effect curves to obtain EC50 and IC50 values.
Striatal slices (500 μm, 4-6 mg) were incubated for 30 minutes in Krebs' buffer (in mM: 118 NaCl, 4.7 KCl, 1.2 MgCl2, 1 NaH2PO4, 1.3 CaCl2, 11.1 glucose, 25 NaHCO3, 0.11 L-ascorbic acid and 0.004 disodium EDTA, pH 7.4, saturated with 95% O2/5% CO2) in a metabolic shaker at 34° C. Slices were incubated with 0.1 μM (final concentration) [^3H]DA during the latter 30 minutes of the 60-minute incubation period. Each slice was transferred to a glass superfusion chamber maintained at 34° C. and superfused (1 ml/min) with Krebs' buffer containing nomifensine (10 μM) and pargyline (10 μM) to inhibit [^3H]DA reuptake and metabolism, respectively, after release into the extracellular space, ensuring that [^3H]overflow primarily represents [^3H]DA. Sample collection (5-minute; 5 ml) began after 60 minutes of superfusion. […] Thus, the ability of these analogs to elicit intrinsic activity (evoke [^3H]DA overflow) was determined. At the end of the experiment, each slice was solubilized and [^3H]content of the tissue determined. Release during each minute was normalized for total [^3H]content of the slice. Analog-induced intrinsic activity and inhibitory activity were determined using slices from the same rat (repeated-measures design).
Fractional release was calculated by dividing the total tritium collected in each sample by the total tritium in the tissue at the time of sample collection. […] Typically, data were analyzed by weighted, least squares regression analysis of sigmoidal concentration-effect curves to obtain EC50 and IC50 values.

[2] = target: T1, Rat Striatal Nicotinic Acetylcholine Receptors ([^3H]nicotine binding sites) (Rattus norvegicus, UniProt P09483+P12390); assay: biochemical; settings: read-out: Ki, specific binding of [^3H]-nicotine
T1 construct: Striata from two rats were dissected, pooled, and homogenized; from tissue; host or cells: rat striatum membranes
Method: Striata from two rats were dissected, pooled, and homogenized with a Tekmar polytron in 10 volumes of ice-cold modified Krebs-HEPES buffer (20 mM HEPES, 118 mM NaCl, 4.8 mM KCl, 2.5 mM CaCl2, 1.2 mM MgSO4, adjusted to pH 7.5). The homogenates were incubated at 37° C. for five minutes and centrifuged at 15,000 g for 20 minutes. The pellet was resuspended in ten volumes of ice-cold MilliQ water, incubated for five minutes at 37° C., and centrifuged at 15,000 g for 20 minutes The second pellet was then resuspended in ten volumes of fresh ice-cold 10% Krebs-HEPES buffer, incubated at 37° C., and centrifuged at 15,000 g for 20 minutes. The latter sequence of resuspension, incubation, and centrifugation was repeated. The pellet was frozen under fresh 10% Krebs-HEPES buffer and stored at −40° C. until assay. Upon assay, the pellet was resuspended in the Krebs-HEPES buffer, incubated at 37° C. for five minutes, and centrifuged at 15,000 g for 20 minutes. The final pellet was resuspended in 3.6 ml ice-cold MilliQ water which provided for approximately 200 μg protein per 100 μl aliquot. Competition assays were performed in duplicate in a final volume of 200 μl Krebs-HEPES buffer containing […] Tris buffer (pH 7.5 at 4° C.). […] After a 90 minute incubation at 4° C., reactions were terminated by dilution of the samples with 3 ml of ice-cold Krebs-HEPES buffer followed immediately by filtration through Whatman GF/B glass fiber filters (presoaked in 0.5% polyethyleneimine) using a Brandel Cell Harvester. Filters were rinsed three times with 3 ml of ice-cold Krebs-HEPES buffer, transferred to scintillation vials, and 5 ml scintillation cocktail (Research Products International Corp., Mt. Prospect, Ill.) added. […] Binding parameters were determined using the weighted, least squares non-linear regression.

[3] = target: nAChR mediating nicotine-evoked [^3H]DA release (α3β2* receptor subtype); assay type: cell-based, rat; settings: read-out: IC50, S-(−)-nicotine-evoked [^3H]DA release
Method: Slices were rinsed with 15 mL of fresh buffer and incubated for an additional 30 minutes in fresh buffer containing 0.1 μM [^3H]DA (6 slices/3 ml). Subsequently, slices were rinsed with 15 ml of fresh buffer and transferred to a glass superfusion chamber.
Radioactivity in the superfusate and tissue samples was determined by liquid scintillation spectroscopy. […] Basal [^3H]outflow was calculated from the average of the tritium collected in the two five minute samples just before addition of the bis-alkyl pyridino analog. […] [^3H]Overflow was calculated by subtracting the [^3H]outflow during an equivalent period of prestimulation from the values in samples collected during and after drug exposure. Inasmuch as the radiolabelled compounds were not separated and identified, the tritium collected in superfusate is referred to as either [^3H]outflow or [^3H]overflow, rather than as [^3H]DA.

[4] = target: α4β2* nAChRs (Rattus norvegicus, UniProt P09483+P12390)
Method: Whole brain, excluding cortex and cerebellum, was homogenized in 20 ml of ice-cold buffer, containing (in mM): 2 HEPES, 11.8 NaCl, 0.48 KCl, 0.25 CaCl2 and 0.12 MgSO4, pH 7.5. Homogenate was centrifuged (25,000 g, 15 minutes, 4° C.). Pellets were resuspended in 20 ml of buffer and incubated at 37° C., for ten minutes, cooled to 4° C. and centrifuged (25,000 g, 15 minutes, 4° C.). Pellets were resuspended and centrifuged using the same conditions. Final pellets were stored in assay buffer, containing (in mM): 20 HEPES, 118 NaCl, 4.8 KCl, 2.5 CaCl2, and 1.2 MgSO4) pH 7.5 at −70° C. Upon use, final pellets were resuspended in ˜20 ml assay buffer. […] Control was in the absence of analog. […] Incubations proceeded for 60 minutes at room temperature using 96-well plates and were terminated by harvesting on Unifilter-96 GF/B filter plates presoaked in 0.5% polyethylenimine, using a Packard FilterMate harvester.
After washing five times with 350 μl ice-cold assay buffer, filter plates were dried (60 minutes, 49° C.), bottom-sealed, and filled with Packard's MicroScint 20 cocktail (40 μl/well). After 60 minutes, filter plates were top-sealed, and radioactivity determined using a Packard TopCount. Protein concentrations were determined using bovine serum albumin as the standard.
Whole brain was homogenized in 20 ml of ice-cold buffer (in mM: 2 HEPES, 11.8 NaCl, 0.48 KCl, 0.25 CaCl2, and 0.12 MgSO4, pH 7.5). Homogenates were centrifuged (25,000 g, 15 minutes, 4° C.). Pellets were resuspended in 20 ml of buffer and incubated at 37° C., for 10 minutes, cooled to 4° C. and centrifuged (25,000 g, 15 minutes, 4° C.). Pellets were resuspended and centrifuged again using the same conditions. Final pellets were stored at −70° C. in assay buffer (in mM: 20 HEPES, 118 NaCl, 4.8 KCl, 2.5 CaCl2, and 1.2 MgSO4, pH 7.5). Upon use, final pellets were resuspended in ˜20 ml assay buffer. […] Control was in the absence of analog. […] Incubation proceeded for 60 minutes at room temperature using 96-well plates and was terminated by harvesting on Unifilter-96 GF/B filter plates, presoaked in 0.5% polyethylenimine, using a Packard FiterMate harvester. After washing 5× with 350 μl ice-cold assay buffer, filter plates were dried (60 minutes, 49° C.), bottom-sealed, and filled with Packard's MicroScint 20 cocktail (40 μl/well). After 60 minutes, filter plates were top-sealed, and radioactivity determined. Protein concentration was determined using BSA as the standard.

[5] = target: T2, α7-type neuronal nicotinic acetylcholine receptors (Rattus norvegicus, UniProt Q05941); assay: biochemical; settings: read-out: Ki, [^3H]MLA binding
T2 construct: Rat brain was dissected into the whole brain tissue without cortex, striatum and cerebellum; from tissue; host or cells: rat brain (without cortex, striatum, cerebellum) membranes

[6] = target: T2, α7-type neuronal nicotinic acetylcholine receptors; assay type: binding; settings: read-out: Ki, [^3H]MLA binding
Method: Rat brain was dissected into the whole brain tissue without cortex, striatum and cerebellum and was frozen in liquid nitrogen and stored at −70° C. until use.
The brain tissue was homogenized with a Tekmar Polytron (setting 40) in 20 volumes of ice-cold hypotonic buffer (2 mM HEPES, 14.4 mM NaCl, 0.15 mM KCl, 0.2 mM CaCl2 and 0.1 mM MgSO4, pH=7.5). The homogenate was incubated at 37° C. for ten minutes and centrifuged at 25,000×g for 15 minutes at […] The pellet was washed three times more by resuspension in the 20 volumes of the same buffer and centrifugation at the above parameters. The final pellet was stored at −20° C. under 4.6 ml of the incubation buffer and was suspended just before the incubation with radioligand.
[^3H]MLA (25.4 Ci/mmol) was purchased from Tocris Cookson Ltd., Bristol, U.K. Binding was performed in duplicate, in a final volume of 250 μl of the incubation medium, containing 20 mM HEPES, 144 mM NaCl, 1.5 mM KCl, 2 mM CaCl2, 1 mM MgSO4 and 0.05% BSA, pH=7.5. Reaction was initiated by the addition of 100 μl of membrane suspension to the samples containing a desired concentration of test compounds and […] [^3H] MLA (final concentration) and incubated for 2 hours at room temperature. […] The binding reaction was terminated by dilution of samples with 3 ml of ice-cold incubation buffer followed by immediate filtration through presoaked in 0.5% polyethylenimine glass fiber filters (S&S, grade #32) using a Brandel harvester system. Filters were rinsed three times with 3 ml of ice-cold buffer, transferred to scintillation-vials and 4 ml of scintillation cocktail was added. Protein was measured using the Bradford dye-binding procedure with bovine serum albumin as the standard.

[7] = read-out: Nicotine-evoked [^3H]DA Overflow IC50, Table 6, mean (standard error)
[8] = read-out: Nicotine-evoked [^3H]DA Overflow IC50, Table 5, mean (95% confidence interval)
[9] = rat striatal slices, nicotine 10 μM
[10] = rat brain membranes, 2.5 nM [^3H]-MLA
[11] = rat striatal membranes, 3 nM [^3H]-nicotine
[12] = rat brain membranes, […] [^3H]-MLA
[13] = read-out: Nicotine-evoked [^3H]DA Overflow IC50

T2 sequence (Q05941 23-502): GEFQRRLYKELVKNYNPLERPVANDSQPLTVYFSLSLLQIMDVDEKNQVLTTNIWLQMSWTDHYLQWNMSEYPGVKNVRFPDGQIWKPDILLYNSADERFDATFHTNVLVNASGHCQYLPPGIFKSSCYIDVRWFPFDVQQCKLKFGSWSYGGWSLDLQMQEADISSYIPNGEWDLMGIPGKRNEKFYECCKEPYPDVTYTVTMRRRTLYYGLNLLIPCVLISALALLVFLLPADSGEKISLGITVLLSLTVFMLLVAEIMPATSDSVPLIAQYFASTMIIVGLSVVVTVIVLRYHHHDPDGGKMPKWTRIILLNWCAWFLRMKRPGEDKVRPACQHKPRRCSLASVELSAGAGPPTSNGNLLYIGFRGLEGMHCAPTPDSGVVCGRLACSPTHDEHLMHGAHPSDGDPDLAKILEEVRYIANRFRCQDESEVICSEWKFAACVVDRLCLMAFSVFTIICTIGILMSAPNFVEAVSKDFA
T1 sequence (P09483 31-630): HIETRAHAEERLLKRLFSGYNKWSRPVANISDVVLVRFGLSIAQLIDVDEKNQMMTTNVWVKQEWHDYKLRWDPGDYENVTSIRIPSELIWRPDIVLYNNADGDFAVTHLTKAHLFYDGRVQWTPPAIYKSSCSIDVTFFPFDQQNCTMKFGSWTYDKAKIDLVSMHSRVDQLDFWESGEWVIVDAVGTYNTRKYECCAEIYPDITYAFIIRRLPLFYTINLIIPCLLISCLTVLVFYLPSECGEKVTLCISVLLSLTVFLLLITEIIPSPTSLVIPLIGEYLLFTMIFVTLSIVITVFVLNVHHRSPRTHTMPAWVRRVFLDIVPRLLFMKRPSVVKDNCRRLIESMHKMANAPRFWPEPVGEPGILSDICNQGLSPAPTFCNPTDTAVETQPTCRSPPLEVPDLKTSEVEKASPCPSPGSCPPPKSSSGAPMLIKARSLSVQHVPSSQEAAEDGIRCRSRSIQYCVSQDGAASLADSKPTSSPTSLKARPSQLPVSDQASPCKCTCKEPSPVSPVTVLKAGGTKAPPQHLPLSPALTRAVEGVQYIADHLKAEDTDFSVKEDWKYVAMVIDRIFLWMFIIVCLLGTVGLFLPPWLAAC
T1 sequence (P12390 25-500): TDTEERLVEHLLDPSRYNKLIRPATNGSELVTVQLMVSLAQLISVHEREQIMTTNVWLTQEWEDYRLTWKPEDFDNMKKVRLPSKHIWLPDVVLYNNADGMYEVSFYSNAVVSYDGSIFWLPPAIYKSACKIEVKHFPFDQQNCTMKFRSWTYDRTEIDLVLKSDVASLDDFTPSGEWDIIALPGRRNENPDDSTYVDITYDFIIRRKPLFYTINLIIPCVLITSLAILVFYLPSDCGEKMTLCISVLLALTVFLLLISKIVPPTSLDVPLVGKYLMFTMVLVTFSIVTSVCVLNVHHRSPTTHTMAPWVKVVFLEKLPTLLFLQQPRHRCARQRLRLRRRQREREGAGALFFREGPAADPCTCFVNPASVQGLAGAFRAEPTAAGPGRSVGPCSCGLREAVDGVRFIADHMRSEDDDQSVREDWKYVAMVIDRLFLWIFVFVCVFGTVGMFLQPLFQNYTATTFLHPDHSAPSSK
Sequence of α4β2* nAChRs (P09483 31-630): as the sequence (P09483 31-630) above
Sequence of α4β2* nAChRs (P12390 25-500): as the sequence (P12390 25-500) above

Row | Compound | IC50 [3, 9] | Ki [2, 11] | also measured
1 | CCCCCCCCCCCC[n+]1ccc2c(c1)[C@@H]1[C@H](CC2)CCN1C [ACDD] |  |  | IC50 [1, 7]: 220 nM
2 | CCCCCCCCC[n+]1cccc2c1CCC1CCN(C)C21 (centres unmarked) [BCN] |  |  | IC50 [1, 7]: 310 nM
3 | CCCCCCCCCCC[n+]1cccc2c1CCC1CCN(C)C21 (centres unmarked) [BCU] |  |  | IC50 [1, 7]: 40 nM
4 | CO[C@H]1CC=C2CCN3CCC4=C(CC(=O)OC4)[C@]23C1 [DHβE, dihydro-β-erthyroidine, reference compound] |  |  | Ki [2]: 0.15 µM; IC50 [3]: 1 µM
5 | CCCCCCCCCCCC[n+]1cccc(C2CCCN2C)c1 (centres unmarked) [NDDNI] |  |  | Ki [4]: 0.14 µM; potency relative to DHβE as inhibitor of nAChRs mediating nicotine-evoked dopamine release [1]: at least two orders of magnitude more potent; IC50 ([1]; read-out: IC50, inhibition of nicotine-evoked [^3H]dopamine release/overflow): 9 nM
6 | CCCCCCCCCCCC[n+]1ccccc1 [NDDPI] |  |  | IC50 [1, 8]: 260 nM
7 | CCCCCCCCCCCCCCCCCCCC[n+]1ccccc1 [NEcPB] |  |  | IC50 [1, 8]: 120 nM
8 | CCCCCCCC[n+]1cccc(C)c1 [NOPiI] |  |  | IC50 ([1]; read-out: Nicotine-evoked [^3H]DA Overflow IC50, Table 9, mean (standard error)): 1000 nM
9 | CCCCCCCCCCCCCCC[n+]1ccccc1 [NPDPB] |  |  | Ki ([4]; read-out: [^3H]Nicotine Binding Ki, Table 5, mean (95% confidence interval)): 38 µM; IC50 [1, 8]: 320 nM
10 | c1ccc2c[n+](CCCCCCCCCC[n+]3ccc4ccccc4c3)ccc2c1 [bIQDI, N,N′-Decane-1,10-diyl-bis-isoquinolinium Diiodide] | 2.62 µM |  | Ki [5, 10]: 5.5 µM
11 | c1ccc2c[n+](CCCCCC[n+]3ccc4ccccc4c3)ccc2c1 [bIQHxI, N,N′-Hexane-1,6-diyl-bis-isoquinolinium Diiodide] | > 100 µM | 17.9 µM | Ki [6, 12]: 16 µM
12 | c1ccc2c[n+](CCCCCCCCC[n+]3ccc4ccccc4c3)ccc2c1 [bIQNB, N,N′-Nonane-1,9-diyl-bis-isoquinolinium Dibromide] | 1.61 µM | > 100 µM | Ki [5, 10]: 13.1 µM
13 | c1ccc2c[n+](CCCCCCCC[n+]3ccc4ccccc4c3)ccc2c1 [bIQOI, N,N′-Octane-1,8-diyl-bis-isoquinolinium Diiodide] | 51.9 µM | > 100 µM | Ki [5, 10]: 8.55 µM
14 | c1ccc2c[n+](CCCCCCCCCCC[n+]3ccc4ccccc4c3)ccc2c1 [bIQUB, N,N′-Undecane-1,11-diyl-bis-isoquinolinium Dibromide] | 0.49 µM | 9.02 µM | Ki [5, 10]: 24.1 µM
15 | CN1CCCC1c1ccc[n+](CCCCCCCCCC[n+]2cccc(C3CCCN3C)c2)c1 (centres unmarked) [bNDI, N,N′-Decane-1,10-diyl-bis-nicotinium Diiodide] | > 100 µM | 0.28 µM | Ki [5, 10]: > 100 µM
16 | CN1CCC[C@H]1c1ccc[n+](CCCCCC[n+]2cccc([C@@H]3CCCN3C)c2)c1 [bNHxI, N,N′-Hexane-1,6-diyl-bis-nicotinium Diiodide] | > 100 µM |  | 
17 | CN1CCC[C@H]1c1ccc[n+](CCCCCCCCC[n+]2cccc([C@@H]3CCCN3C)c2)c1 [bNNB, N,N′-Nonane-1,9-diyl-bis-nicotinium Dibromide] | > 100 µM | 4.31 µM | 

Row | Compound | IC50 [3, 9] | Ki [2, 11] | also measured
18 | CN1CCC[C@H]1c1ccc[n+](CCCCCCCC[n+]2cccc([C@@H]3CCCN3C)c2)c1 [bNOI, N,N′-Octane-1,8-diyl-bis-nicotinium Diiodide] | 19.1 µM | 1.5 µM | 
19 | CN1CCC[C@H]1c1ccc[n+](CCCCCCCCCCC[n+]2cccc([C@@H]3CCCN3C)c2)c1 [bNUB, N,N′-Undecane-1,11-diyl-bis-nicotinium Dibromide] | > 100 µM | 0.37 µM | 
20 | c1cc[n+](CCCCCCCCCC[n+]2ccccc2)cc1 [bPDI, N,N′-Decane-1,10-diyl-bis-pyridinium Diiodide] | > 1 µM | 18.6 µM | 
21 | c1cc[n+](CCCCCC[n+]2ccccc2)cc1 [bPHxI, N,N′-Hexane-1,6-diyl-bis-pyridinium Diiodide] | > 100 µM | 97.8 µM | 
22 | c1cc[n+](CCCCCCCCC[n+]2ccccc2)cc1 [bPNB, N,N′-Nonane-1,9-diyl-bis-pyridinium Dibromide] | > 100 µM | 24.1 µM | 
23 | c1cc[n+](CCCCCCCC[n+]2ccccc2)cc1 [bPOI, N,N′-Octane-1,8-diyl-bis-pyridinium Diiodide] | > 1 µM | 33.9 µM | 
24 | c1cc[n+](CCCCC[n+]2ccccc2)cc1 [bPPeI, N,N′-Pentane-1,5-diyl-bis-pyridinium Diiodide] | > 100 µM | > 100 µM | 
25 | c1cc[n+](CCCCCCCCCCC[n+]2ccccc2)cc1 [bPUB, N,N′-Undecane-1,11′-diyl-bis-pyridinium Dibromide] | > 100 µM | 14.4 µM | Ki [5]: 50.2 µM
26 | c1ccc2c(c1)ccc[n+]2CCCCCCCCCC[n+]1cccc2ccccc21 [bQDI, N,N′-Decane-1,10-diyl-bis-quinolinium Diiodide] | 8.99 µM |  | Ki [5, 10]: 7.32 µM
27 | c1ccc2c(c1)ccc[n+]2CCCCCC[n+]1cccc2ccccc21 [bQHxI, N,N′-Hexane-1,6-diyl-bis-quinolinium Diiodide] | > 100 µM | > 100 µM | Ki [6, 12]: 13.3 µM
28 | c1ccc2c(c1)ccc[n+]2CCCCCCCCC[n+]1cccc2ccccc21 [bQNB, N,N′-Nonane-1,9-diyl-bis-quinolinium Dibromide] | 17.3 µM | 20.1 µM | Ki [5, 10]: 3.4 µM
29 | c1ccc2c(c1)ccc[n+]2CCCCCCCC[n+]1cccc2ccccc21 [bQOI, N,N′-Octane-1,8-diyl-bis-quinolinium Diiodide] | 10.7 µM |  | Ki [5, 10]: 2.01 µM
30 | c1ccc2c(c1)ccc[n+]2CCCCCCCCCCC[n+]1cccc2ccccc21 [bQUB, N,N′-Undecane-1,11-diyl-bis-quinolinium Dibromide] | 12 µM | 38.3 µM | Ki [5, 10]: 2.44 µM
31 | N,N′-Decane-1,10-diyl-bis-picolinium Diiodide [bPiDI] |  |  | Ki [2]: > 100 µM; Ki [6]: > 100 µM; IC50 [3]: 0.03 µM; IC50 [1, 13]: 30 nM
32 | N,N′-Undecane-1,11-diyl-bis-picolinium Dibromide [bPiUB] |  |  | Ki [6]: > 100 µM; IC50 [3]: 1.61 µM; IC50 [1, 13]: 1610 nM
33 | α-Bungarotoxin [reference compound] |  |  | Ki [6]: 0.0286 ± 0.0054 µM
